± gives the expanded uncertainty stated by the source.
How the values were obtained:
[1] = Liquid
[2] = refractive index (Na D-line) (dimensionless); conditions: 293.1 K; 101.33 kPa; Liquid; Standard Abbe refractometry

SMILES | vapor or sublimation pressure ([1]; 303.15 K) [kPa] | vapor or sublimation pressure ([1]; 313.15 K) [kPa] | vapor or sublimation pressure ([1]; 323.1 K) [kPa] | vapor or sublimation pressure ([1]; 333.05 K) [kPa] | vapor or sublimation pressure ([1]; 343 K) [kPa] | vapor or sublimation pressure ([1]; 352.9 K) [kPa] | vapor or sublimation pressure ([1]; 358.15 K) [kPa] | vapor or sublimation pressure ([1]; 358.45 K) [kPa] | vapor or sublimation pressure ([1]; 361.15 K) [kPa] | vapor or sublimation pressure ([1]; 364.15 K) [kPa] | vapor or sublimation pressure ([1]; 367.15 K) [kPa] | refractive index [2] | vapor or sublimation pressure ([1]; 293.15 K) [kPa] | vapor or sublimation pressure ([1]; 323.15 K) [kPa] | vapor or sublimation pressure ([1]; 333.15 K) [kPa] | vapor or sublimation pressure ([1]; 343.15 K) [kPa] | vapor or sublimation pressure ([1]; 353.15 K) [kPa] | vapor or sublimation pressure ([1]; 363.15 K) [kPa] | vapor or sublimation pressure ([1]; 369.15 K) [kPa]
CC(C)(Cl)OC(C)(C)Cl [propane, 2,2'-oxybis[2-chloro-] | 0.24 ± 0.18 | 0.564 ± 0.34 | 0.867 ± 0.49 | 1.28 ± 0.7 | 1.919 ± 0.69 | 2.822 ± 0.78 | 3.673 ± 0.87 | 3.348 ± 0.83 | 4.237 ± 0.92 | 4.806 ± 0.97 | 5.477 ± 1 | 1.4473 ± 0.0007 | – | – | – | – | – | – | –
CC(O)CCl (stereo not drawn) [1-chloro-2-propanol] | 2.225 ± 1.1 | 3.981 ± 1.3 | – | – | – | – | – | – | – | – | – | 1.4377 ± 0.0007 | 1.199 ± 0.99 | 6.662 ± 1.7 | 10.88 ± 2.4 | 17.2 ± 3.3 | 26.48 ± 4.7 | 39.8 ± 6.7 | 50.1 ± 8.2
CC(Cl)CCl (stereo not drawn) [1,2-dichloropropane] | – | – | – | – | – | – | – | – | – | – | – | 1.4383 ± 0.0007 | – | – | – | – | – | – | –

Reference: the NIST ThermoML archive (doi:10.1021/je800122x)
